Test results published in patent publication US9201014B2, “Development of photostable near-IR cyanine dyes for in vivo imaging” (National University of Singapore, priority 2010, dated 2015).

Key:
[1] = Absorbance and fluorescence maximum wavelengths and quantum yields of the CyNA library; type: physicochemical; conditions: for λabs, absorbance maximum wavelength / λem, fluorescence maximum wavelength: CyNA library; for φ, quantum yield: in DMSO, Cardiogreen as standard
Method: Since the k values of the different CyNA compounds indicated some dependency on the chemical structure of the amine, the CyNA scaffold was derivatized with a broad range of primary amines (FIGS. 4A-4C). The fluorescence properties of the 80-member CyNA library were measured. The absorption maximum wavelengths ranged from 802 nm to 806 nm, emission maximum wavelengths ranged from 817 nm to 823 nm, and the average quantum yield was approximately 0.10 (Table 2).
All the chemicals (building block amines plus others) and solvents were purchased from Sigma Aldrich, Alfa Aesar, Fluka, MERCK or Acros, and used without further purification. ^1H-NMR and ^13C-NMR spectra were recorded on Bruker Avance 300 NMR and 500 NMR spectrometers, and chemical shifts are expressed in parts per million (ppm). High-resolution mass spectrometry (HRMS) data was recorded on a Micromass VG 7035. Photobleaching experiments were performed using a UVP Blak-Ray® B-100AP high intensity UV lamp (100 W, 365 nm) Spectroscopic and quantum yield data were measured on a SpectraMax M2 spectrophotometer (Molecular Devices), and the data analysis was performed using GraphPrism 5.0. Photobleaching measurements were performed using an Eclipse Ti-U Nikon microscope (filter cube: 750/800) attached to Ti:sappire oscillator that operated in continuous wave mode, and the data was processed using the software NIS-Elements 3.10. In vivo images were taken in an IVIS Spectrum imaging system (Caliper Life Sciences).

[2] = Primary screening of photostability of the CyNA library (time-course fluorescence, 8 h); type: physicochemical; parameters: F/Fo, fluorescent intensity at 8 hours vs 0 hours: unit: %; conditions: 10 μM in HEPES 100 mM pH 7.4, 2% DMSO
Method: As a primary evaluation of photo stability, the decrease in fluorescence intensity of the 80 CyNA compounds was measured (see Table 2). The average decrease in fluorescence intensity after 8 hours of irradiation by a xenon lamp was approximately 18%. A subset of the most photostable compounds (i.e., F/Fo reported in Table 2 was greater than or equal to 95) was examined under stronger irradiation in various buffers.
10-μM CyNA solutions in 100 mM HEPES buffer (pH 7.4) containing 2% DMSO were placed in a 96-well black plate, and fluorescence intensity measurements were recorded every 10 minutes for a total period of 8 hours (excitation-emission: 790-820 nm). A subset of fourteen compounds selected according to their F8h/Fo quotients, quantum yields and maximum relative fluorescence units (RFU) values was further evaluated in a secondary screening

## CCCN1/C(=C/C=C2\CCCC(/C=C/C3=[N+](CCC)c4ccccc4C3(C)C)=C2N(CCc2cccc(OC)c2)C(C)=O)C(C)(C)c2ccccc21 [CyNA-102]
[1]
  λabs, absorbance maximum wavelength: 805 nm
  λem, fluorescence maximum wavelength: 822 nm
  φ, quantum yield: 0.14
[2]
  F/Fo, fluorescent intensity at 8 hours vs 0 hours: 63
  max RFU, maximum relative fluorescence units: 998.9

## CCCN1/C(=C/C=C2\CCCC(/C=C/C3=[N+](CCC)c4ccccc4C3(C)C)=C2N(Cc2ccccc2OCC)C(C)=O)C(C)(C)c2ccccc21 [CyNA-103]
[1]
  λabs, absorbance maximum wavelength: 804 nm
  λem, fluorescence maximum wavelength: 821 nm
  φ, quantum yield: 0.14
[2]
  F/Fo, fluorescent intensity at 8 hours vs 0 hours: 92
  max RFU, maximum relative fluorescence units: 1106.6

## CCCN1/C(=C/C=C2\CCCC(/C=C/C3=[N+](CCC)c4ccccc4C3(C)C)=C2N(C(C)=O)C2CCN(Cc3ccccc3)CC2)C(C)(C)c2ccccc21 [CyNA-107]
[1]
  λabs, absorbance maximum wavelength: 803 nm
  λem, fluorescence maximum wavelength: 820 nm
  φ, quantum yield: 0.07
[2]
  F/Fo, fluorescent intensity at 8 hours vs 0 hours: 50
  max RFU, maximum relative fluorescence units: 275.3

## CCCN1/C(=C/C=C2\CCCC(/C=C/C3=[N+](CCC)c4ccccc4C3(C)C)=C2N(Cc2cccc(OC)c2OC)C(C)=O)C(C)(C)c2ccccc21 [CyNA-124]
[1]
  λabs, absorbance maximum wavelength: 803 nm
  λem, fluorescence maximum wavelength: 820 nm
  φ, quantum yield: 0.15
[2]
  F/Fo, fluorescent intensity at 8 hours vs 0 hours: 100
  max RFU, maximum relative fluorescence units: 1334.2

## CCCN1/C(=C/C=C2\CCCC(/C=C/C3=[N+](CCC)c4ccccc4C3(C)C)=C2N(CCCCc2ccccc2)C(C)=O)C(C)(C)c2ccccc21 [CyNA-131]
[1]
  λabs, absorbance maximum wavelength: 804 nm
  λem, fluorescence maximum wavelength: 819 nm
  φ, quantum yield: 0.13
[2]
  max RFU, maximum relative fluorescence units: 259.8

## CCCN1/C(=C/C=C2\CCCC(/C=C/C3=[N+](CCC)c4ccccc4C3(C)C)=C2N(CCCOCC)C(C)=O)C(C)(C)c2ccccc21 [CyNA-167]
[1]
  λabs, absorbance maximum wavelength: 804 nm
  λem, fluorescence maximum wavelength: 818 nm
  φ, quantum yield: 0.10
[2]
  F/Fo, fluorescent intensity at 8 hours vs 0 hours: 92
  max RFU, maximum relative fluorescence units: 1031.8

## CCCN1/C(=C/C=C2\CCCC(/C=C/C3=[N+](CCC)c4ccccc4C3(C)C)=C2N(C(C)=O)C2CCCC2)C(C)(C)c2ccccc21 [CyNA-180]
[1]
  λabs, absorbance maximum wavelength: 805 nm
  λem, fluorescence maximum wavelength: 821 nm
  φ, quantum yield: 0.14
[2]
  F/Fo, fluorescent intensity at 8 hours vs 0 hours: 91
  max RFU, maximum relative fluorescence units: 991.3

## CCCN1/C(=C/C=C2\CCCC(/C=C/C3=[N+](CCC)c4ccccc4C3(C)C)=C2N(Cc2ccc(OC)cc2OC)C(C)=O)C(C)(C)c2ccccc21 [CyNA-181]
[1]
  λabs, absorbance maximum wavelength: 805 nm
  λem, fluorescence maximum wavelength: 821 nm
  φ, quantum yield: 0.14
[2]
  F/Fo, fluorescent intensity at 8 hours vs 0 hours: 66
  max RFU, maximum relative fluorescence units: 996.8

## CCCCC(CC)COCCCN(C(C)=O)C1=C(/C=C/C2=[N+](CCC)c3ccccc3C2(C)C)CCC/C1=C\C=C1\N(CCC)c2ccccc2C1(C)C (centres unmarked) [CyNA-193]
[1]
  λabs, absorbance maximum wavelength: 806 nm
  λem, fluorescence maximum wavelength: 822 nm
  φ, quantum yield: 0.12
[2]
  max RFU, maximum relative fluorescence units: 58.7

## CCCN1/C(=C/C=C2\CCCC(/C=C/C3=[N+](CCC)c4ccccc4C3(C)C)=C2N(CCc2ccc(CC)cc2)C(C)=O)C(C)(C)c2ccccc21 [CyNA-201]
[1]
  λabs, absorbance maximum wavelength: 803 nm
  λem, fluorescence maximum wavelength: 820 nm
  φ, quantum yield: 0.08
[2]
  F/Fo, fluorescent intensity at 8 hours vs 0 hours: 33
  max RFU, maximum relative fluorescence units: 52.6

## CCCN1/C(=C/C=C2\CCCC(/C=C/C3=[N+](CCC)c4ccccc4C3(C)C)=C2N(Cc2ccc(F)cc2)C(C)=O)C(C)(C)c2ccccc21 [CyNA-218]
[1]
  λabs, absorbance maximum wavelength: 802 nm
  λem, fluorescence maximum wavelength: 823 nm
  φ, quantum yield: 0.08
[2]
  F/Fo, fluorescent intensity at 8 hours vs 0 hours: 85
  max RFU, maximum relative fluorescence units: 549.9

## CCCN1/C(=C/C=C2\CCCC(/C=C/C3=[N+](CCC)c4ccccc4C3(C)C)=C2N(C(C)=O)C2CCCCCCC2)C(C)(C)c2ccccc21 [CyNA-219]
[1]
  λabs, absorbance maximum wavelength: 804 nm
  λem, fluorescence maximum wavelength: 822 nm
  φ, quantum yield: 0.14
[2]
  F/Fo, fluorescent intensity at 8 hours vs 0 hours: 65
  max RFU, maximum relative fluorescence units: 902.7

## CCCN1/C(=C/C=C2\CCCC(/C=C/C3=[N+](CCC)c4ccccc4C3(C)C)=C2N(Cc2ccc(Cl)cc2)C(C)=O)C(C)(C)c2ccccc21 [CyNA-221]
[1]
  λabs, absorbance maximum wavelength: 803 nm
  λem, fluorescence maximum wavelength: 820 nm
  φ, quantum yield: 0.07
[2]
  F/Fo, fluorescent intensity at 8 hours vs 0 hours: 86
  max RFU, maximum relative fluorescence units: 382.6

## CCCCC(CC)CN(C(C)=O)C1=C(/C=C/C2=[N+](CCC)c3ccccc3C2(C)C)CCC/C1=C\C=C1\N(CCC)c2ccccc2C1(C)C (centres unmarked) [CyNA-230]
[1]
  λabs, absorbance maximum wavelength: 805 nm
  λem, fluorescence maximum wavelength: 822 nm
  φ, quantum yield: 0.09
[2]
  F/Fo, fluorescent intensity at 8 hours vs 0 hours: 80
  max RFU, maximum relative fluorescence units: 77.7

## CCCN1/C(=C/C=C2\CCCC(/C=C/C3=[N+](CCC)c4ccccc4C3(C)C)=C2N(Cc2cc(OC)cc(OC)c2)C(C)=O)C(C)(C)c2ccccc21 [CyNA-262]
[1]
  λabs, absorbance maximum wavelength: 803 nm
  λem, fluorescence maximum wavelength: 822 nm
  φ, quantum yield: 0.10
[2]
  F/Fo, fluorescent intensity at 8 hours vs 0 hours: 81
  max RFU, maximum relative fluorescence units: 816.5

## CCCN1/C(=C/C=C2\CCCC(/C=C/C3=[N+](CCC)c4ccccc4C3(C)C)=C2N(CCc2ccc(OC)c(OC)c2)C(C)=O)C(C)(C)c2ccccc21 [CyNA-266]
[1]
  λabs, absorbance maximum wavelength: 804 nm
  λem, fluorescence maximum wavelength: 823 nm
  φ, quantum yield: 0.08
[2]
  F/Fo, fluorescent intensity at 8 hours vs 0 hours: 99
  max RFU, maximum relative fluorescence units: 541.8

## CCCN1/C(=C/C=C2\CCCC(/C=C/C3=[N+](CCC)c4ccccc4C3(C)C)=C2N(CCCOC(C)C)C(C)=O)C(C)(C)c2ccccc21 [CyNA-274]
[1]
  λabs, absorbance maximum wavelength: 805 nm
  λem, fluorescence maximum wavelength: 820 nm
  φ, quantum yield: 0.12
[2]
  F/Fo, fluorescent intensity at 8 hours vs 0 hours: 99
  max RFU, maximum relative fluorescence units: 1209.5

## CCCN1/C(=C/C=C2\CCCC(/C=C/C3=[N+](CCC)c4ccccc4C3(C)C)=C2N(C(C)=O)C(C)CCc2ccccc2)C(C)(C)c2ccccc21 (centres unmarked) [CyNA-275]
[1]
  λabs, absorbance maximum wavelength: 804 nm
  λem, fluorescence maximum wavelength: 817 nm
  φ, quantum yield: 0.14
[2]
  F/Fo, fluorescent intensity at 8 hours vs 0 hours: 62
  max RFU, maximum relative fluorescence units: 679.8

## CCCN1/C(=C/C=C2\CCCC(/C=C/C3=[N+](CCC)c4ccccc4C3(C)C)=C2N(CCN2CCOCC2)C(C)=O)C(C)(C)c2ccccc21 [CyNA-282]
[1]
  λabs, absorbance maximum wavelength: 805 nm
  λem, fluorescence maximum wavelength: 819 nm
  φ, quantum yield: 0.09
[2]
  F/Fo, fluorescent intensity at 8 hours vs 0 hours: 90
  max RFU, maximum relative fluorescence units: 820.1

## CCCN1/C(=C/C=C2\CCCC(/C=C/C3=[N+](CCC)c4ccccc4C3(C)C)=C2N(Cc2ccc(OC)c(OC)c2)C(C)=O)C(C)(C)c2ccccc21 [CyNA-319]
[1]
  λabs, absorbance maximum wavelength: 805 nm
  λem, fluorescence maximum wavelength: 820 nm
  φ, quantum yield: 0.06
[2]
  F/Fo, fluorescent intensity at 8 hours vs 0 hours: 67
  max RFU, maximum relative fluorescence units: 578.6
